Assay results taken from patent US20250152584A1, “NLRP3 INFLAMMASOME INHIBITOR AND USES THEREOF” (TransThera Sciences (Nanjing), Inc., priority 2022, published 2025).

Assays:
[1] = Pharmacokinetic study in SD male rats; type: in vivo; details: rat, plasma; for clearance: read-out: Cl—obs iv (clearance rate) (converted); for Vd: read-out: Vss iv (volume of distribution); for bioavailability: iv 1.0 mg/kg / po 5.0 mg/kg, read-out: F % (absolute bioavailability); for Tmax: median, read-out: Tmax po (peak time of plasma concentration); for Cmax: read-out: Cmax po (peak concentration)
Method: Experimental Example 3: Pharmacokinetic Study of Compounds in SD Male Rats
Compound 54, Compound 55, Compound 174, Compound 173, and Compound 264 were prepared into solutions with a mixed solvent formulated from 5% dimethyl sulfoxide, 20% (30% solutol) and 75% normal saline, respectively; the solution of each compound was administered to SD male rats by gavage at a dose of 5.0 mg/kg; and the time points for blood collection were: 15 min, 30 min, 1 h, 2 h, 4 h, 6 h, 8 h, 10 h and 24 h. The solution of the compound was administered to male SD rats by intravenous bolus at a dose of 1.0 mg/kg, and the time points for blood collection were as follows: 5 min, 15 min, 30 min, 1 h, 2 h, 4 h, 6 h, 8 h, 10 h, and 24 h.
On the day before administration, the jugular vein of each animal was cannulated; and after administration, about 300 μL of blood was collected through the jugular vein, and then placed in an anticoagulant tube containing EDTA-K2. Blood samples were centrifuged at 12,000 rpm for 10 min at 4° C. to obtain plasma samples, and plasma was prepared within 30 min after blood collection. The plasma was stored in a −80° C. freezer before testing.
• 1. The samples were taken from the −80° C. freezer, thawed naturally at room temperature, and then vortexed for 5 min. • 2. 30 μL of a plasma sample was precisely pipetted into a 1.5 mL centrifuge tube. • 3. 750 μL of an internal standard working solution (the acetonitrile solution of tolbutamide) at a concentration of […] was added and mixed well. • 4. After vortexing for 5 min, the mixture was centrifuged at 12,000 rpm for 5 min. • 5. 50 μL of the supernatant was accurately pipetted into a 96-well plate preloaded with water at 150 μL/well. • 6. Vortexing was performed for 5 min for sufficient mixing, and LC-MS/MS analysis was then conducted.
(§1) The results of the concentrations of the compounds under test were output using Analyst 1.6.3 of AB. Parameters such as mean, standard deviation, coefficient of variation was calculated by Microsoft Excel (parameters directly output by Analyst 1.6.3 needed no calculation), and PK parameters were calculated by WinNonlin Phenoix 8.2 software NCA (Tmax as the median).

[2] = Pharmacokinetic study in C57BL/6J mice; type: in vivo; details: mouse, plasma, C57BL/6J female mice; for Tmax: median, read-out: Tmax po (peak time of plasma concentration); for Cmax: read-out: Cmax po (peak concentration); for clearance: read-out: Cl—obs iv (clearance rate) (converted); for Vd: read-out: Vss iv (volume of distribution); for bioavailability: iv 5 mg/kg / po 10 mg/kg, read-out: F % (absolute bioavailability)
Method: Experimental Example 2: Pharmacokinetic Study of Compounds in C57BL/6J Mice
Compound 100, Compound 54, Compound 174, Compound 179, and Compound 253 were prepared into solutions with a mixed solvent formulated from 5% dimethyl sulfoxide, 20% (30% solutol) and 75% normal saline, respectively; the solution of each compound was administered to C57BL/6J female mice by gavage at a dose of 10 mg/kg; and the time points for blood collection were: 15 min, 30 min, 1 h, 2 h, 4 h, 6 h, 8 h and 24 h. The solution of the compound was administered to C57BL/6J female mice by intravenous bolus at a dose of 5 mg/kg, and the time points for blood collection were as follows: 5 min, 15 min, 30 min, 1 h, 2 h, 4 h, 6 h, 8 h, and 24 h.
Compound 1 was prepared into a solution with a mixed solvent formulated from 5% DME, 20% (30% solutol) and 75% normal saline; the solution of this compound was administered to C57BL/6J female mice by gavage at a dose of 10 mg/kg, and the time points for blood collection were: 15 min, 30 min, 1 h, 2 h, 4 h, 6 h, 8 h, and 24 h. The solution of the compound was administered to C57BL/6J female mice by intravenous bolus at a dose of 5 mg/kg, and the time points for blood collection were as follows: 5 min, 15 min, 30 min, 1 h, 2 h, 4 h, 6 h, 8 h, and 24 h.
Compound 195 was prepared into a solution with a mixed solvent formulated from 5% dimethyl sulfoxide, 20% PEG400 and 75% normal saline; the solution of this compound was administered to C57BL/6J female mice by gavage at a dose of 10 mg/kg; and the time points for blood collection were 15 min, 30 min, 1 h, 2 h, 4 h, 6 h, 8 h, and 24 b. The solution of the compound was administered to C57BL/6J female mice by intravenous bolus at a dose of 5 mg/kg, and the time points for blood collection were as follows: 5 min, 15 min, 30 min, 1 h, 2 b, 4 h, 6 h, 8 h, and 24 h.
Approximately 100 μL of blood was collected through the retroorbital venous plexus, and was then placed in an anticoagulant tube containing EDTA-K2. Blood samples were centrifuged at 12,000 rpm for 10 min at 4° C. to obtain plasma samples, and plasma was prepared within 30 min after blood collection. The plasma was stored in a −80° C. freezer before testing.
• 1. The samples were taken from the −80° C. freezer, thawed naturally at room temperature, and then vortexed for 5 min • 2. 10 μL of a plasma sample was precisely pipetted from different individuals into a 1.5 mL centrifuge tube. • 3. 300 μL of an internal standard working solution (the acetonitrile solution of tolbutamide) at a concentration of […] was added and mixed well. • 4. After vortexing for 5 min, the mixture was centrifuged at 12,000 rpm for 5 min. • 5. 50 μL of the supernatant was accurately pipetted into a 96-well plate preloaded with water at 150 μL/well. • 6. Vortexing was performed for 5 min for sufficient mixing, and LC-MS/MS analysis was then conducted.
as §1

[3] = intravenous bolus 1.0 mg/kg, read-out: AUClast iv (area under the drug-time curve for 0-24 h)
[4] = intravenous bolus 1.0 mg/kg, read-out: tz1/2 iv (terminal elimination half-life) (converted)
[5] = po, gavage 5.0 mg/kg, read-out: AUClast po (area under the drug-time curve for 0-24 h)
[6] = po, gavage 5.0 mg/kg, read-out: tz1/2 po (terminal elimination half-life) (converted)
[7] = po, gavage 10 mg/kg, read-out: AUClast po (area under the drug-time curve for 0-24 h)
[8] = po, gavage 10 mg/kg, read-out: tz1/2 po (terminal elimination half-life) (converted)
[9] = intravenous bolus 5 mg/kg, read-out: AUClast iv (area under the drug-time curve for 0-24 h)
[10] = intravenous bolus 5 mg/kg, read-out: tz1/2 iv (terminal elimination half-life) (converted)

An AUC(0-t) [1, 3] of 811 ng·h/mL, a clearance ([1]; intravenous bolus 1.0 mg/kg) of 17.5 mL/min/kg and a Vd ([1]; intravenous bolus 1.0 mg/kg) of 12.5 L/kg were found for `CC#Cc1ccc(-c2nnc(N[C@@H]3CCCN(C)C3)cc2C2CC2)c(O)c1` [Compound 264, (R)-2-(4-cyclopropyl-6-((1-methylpiperidin-3-yl)amino)pyridazin-3-yl)-5-(propyl-1-alkyn-1-yl)phenol] in this work. It also gave a half-life [1, 4] of 8.89 h, a bioavailability [1] of 72.8% and a Tmax ([1]; po, gavage 5.0 mg/kg) of 4 h. It also gave an AUC(0-t) [1, 5] of 3120 ng·h/mL, a Cmax ([1]; po, gavage 5.0 mg/kg) of 230 ng/mL and a half-life [1, 6] of 7.26 h.
An AUC(0-t) [1, 3] of 1100 ng·h/mL, a clearance ([1]; intravenous bolus 1.0 mg/kg) of 14.3 mL/min/kg and a Vd ([1]; intravenous bolus 1.0 mg/kg) of 6.92 L/kg were found for `C#Cc1ccc(-c2nnc(N[C@@H]3CCCN(C)C3)cc2C2CC2)c(O)c1` [Compound 173, (R)-2-(4-cyclopropyl-6-((1-methylpiperidin-3-yl)amino)pyridazin-3-yl)-5-ethynylphenol] in this work. The half-life [1, 4] was 6.13 h, the bioavailability [1] was 85.6% and the Tmax ([1]; po, gavage 5.0 mg/kg) was 4 h. The AUC(0-t) [1, 5] was 4690 ng·h/mL, the Cmax ([1]; po, gavage 5.0 mg/kg) was 395 ng/mL and the half-life [1, 6] was 5.72 h.
A Tmax ([2]; po, gavage 10 mg/kg) of 0.5 h, an AUC(0-t) [2, 7] of 6900 ng·h/mL and a Cmax ([2]; po, gavage 10 mg/kg) of 2320 ng/mL were found for `C#Cc1ccc(-c2nnc(N[C@@H]3CCCN(CCO)C3)cc2C)c(O)c1` [Compound 253, (R)-5-ethynyl-2-(6-((1-(2-hydroxyethyl)piperidin-3-yl)amino)-4-methylpyridazin-3-yl)phenol] in this work. For the same compound, the half-life [2, 8] was 3.49 h, the AUC(0-t) [2, 9] was 3200 ng·h/mL and the clearance ([2]; intravenous bolus 5 mg/kg) was 25.5 mL/min/kg. It also gave a Vd ([2]; intravenous bolus 5 mg/kg) of 2.76 L/kg, a half-life [2, 10] of 1.5 h and a bioavailability [2] of 106%.
An AUC(0-t) [1, 3] of 5130 ng·h/mL, a clearance ([1]; intravenous bolus 1.0 mg/kg) of 3.17 mL/min/kg and a Vd ([1]; intravenous bolus 1.0 mg/kg) of 1.12 L/kg were found for `C#Cc1ccc(-c2nnc(N[C@H]3C[C@@](C)(O)C3)cc2C)c(O)c1` [Compound 55, 5-ethynyl-2-(6-(((cis)-3-hydroxyl-3-methylcyclobutyl)amino)-4-methylpyridazin-3-yl)phenol] in this work. It also gave a half-life [1, 4] of 5.24 h, a bioavailability [1] of 163% and a Tmax ([1]; po, gavage 5.0 mg/kg) of 2 h. For the same compound, the AUC(0-t) [1, 5] was 38500 ng·h/mL, the Cmax ([1]; po, gavage 5.0 mg/kg) was 3050 ng/mL and the half-life [1, 6] was 7.18 h.
A Tmax ([2]; po, gavage 10 mg/kg) of 0.5 h, an AUC(0-t) [2, 7] of 3860 ng·h/mL and a Cmax ([2]; po, gavage 10 mg/kg) of 1120 ng/mL were found for `C#Cc1ccc(-c2nnc(N[C@@H]3CCCN(C)C3)nc2C2CC2)c(O)c1` [Compound 179, (R)-2-(5-cyclopropyl-3-((1-methylpiperidin-3-yl)amino)-1,2,4-triazin-6-yl)-5-ethynylphenol] in this work. For the same compound, the half-life [2, 8] was 2.19 h, the AUC(0-t) [2, 9] was 2470 ng·h/mL and the clearance ([2]; intravenous bolus 5 mg/kg) was 32.8 mL/min/kg. The Vd ([2]; intravenous bolus 5 mg/kg) was 5.14 L/kg, the half-life [2, 10] was 2.01 h and the bioavailability [2] was 79.2%.
A Tmax ([2]; po, gavage 10 mg/kg) of 0.25 h, an AUC(0-t) [2, 7] of 1890 ng·h/mL and a Cmax ([2]; po, gavage 10 mg/kg) of 428 ng/mL were found for `C#Cc1ccc(-c2nnc(N[C@@H]3CCCN(C)C3)c3c2CCCC3)c(O)c1` [Compound 1, (R)-5-ethynyl-2-(4-((1-methylpiperidin-3-yl)amino)-5,6,7,8-tetrahydrophthalazin-1-yl)phenol] in this work. For the same compound, the half-life [2, 8] was 3 h, the AUC(0-t) [2, 9] was 1820 ng·h/mL and the clearance ([2]; intravenous bolus 5 mg/kg) was 44 mL/min/kg. The Vd ([2]; intravenous bolus 5 mg/kg) was 5.22 L/kg, the half-life [2, 10] was 3.85 h and the bioavailability [2] was 49.9%.
A Tmax ([2]; po, gavage 10 mg/kg) of 2 h, an AUC(0-t) [2, 7] of 10100 ng·h/mL and a Cmax ([2]; po, gavage 10 mg/kg) of 1530 ng/mL were found for `C#Cc1ccc(-c2nnc(N[C@@H]3CCCN(C)C3)c3ccccc23)c(O)c1` [Compound 100, (R)-5-ethynyl-2-(4-((1-methylpiperidin-3-yl)amino)phthalazin-1-yl)phenol] in this work. The half-life [2, 8] was 2.76 h, the AUC(0-t) [2, 9] was 6360 ng·h/mL and the clearance ([2]; intravenous bolus 5 mg/kg) was 13.1 mL/min/kg. It also gave a Vd ([2]; intravenous bolus 5 mg/kg) of 3.16 L/kg, a half-life [2, 10] of 3.04 h and a bioavailability [2] of 79.4%.
